The record followed here is patent US20210139435A1, “PROSTAGLANDIN ANALOGS AND USES THEREOF” (Lifex Biolabs, Inc., priority 2019, published 2021).

Structures are written as SMILES.

One assay addresses T1, mouse Nurr1 full-length (Mus musculus, UniProt Q06219).
T1 construct: pcDNA3.1 Myc/His mouse Nurr1 full-length construct; expressed in transfected cells; host or cells: SK-N-BE2C
The experiment in a line: Luciferase reporter gene assay for Nurr1 transcriptional activity in SK-N-BE2C cells. In kind it is cell-based. The following applies: relative activity over control (luminescence value; 1.0). The method in brief:
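SK-N-BE2C cells co-transfected with mouse full-length Nurr1, firefly reporter carrying response element and Renilla control (8:1:1), then exposed to compound doses for 24 h at 37 °C. Dual-luciferase readout; firefly RLU normalized to Renilla after background subtraction, then to DMSO-treated wells.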

For a further assay, the target named is Nurr1 (Homo sapiens, UniProt P43354). In words: Activation of Nurr1 / Nurr1's transcription function by prostaglandins (stated without method). In kind it is cell-based.
Assay [1] addresses ligand-binding domain (LBD) of Nurr1 (Homo sapiens, UniProt P43354). In words: Binding of prostaglandins to Nurr1-LBD (NMR titration). From the text:
Cyclopentenone prostaglandin's A1/A2 are dehydrated metabolites of their precursors, the cyclopentanone prostaglandins E1/E2. In PGE1/E2, a hydroxyl group is attached to the C11 atom, which is responsible for the covalent attachment between PGA1 and Nurr1. This is evident from the electron density observed between the PGA1/A2's C11 atom (Rajan, S. et al. Nat Chem Biol 16, 876-886 (2020); U.S. patent application Ser. No. 16/334,550) and Nurr1's Cys566 sulphur, a characteristic feature of PGA1/A2 binding. […] Based on these one could conclude that both PGA1 and PGE1 can be used to design analogs, preferably using PGE1 which is better suited for chemic synthesis and modifications as it lacks the reactive C11 site, concealed by the hydroxyl group (Rajan, S. et al. Nat Chem Biol 16, 876-886 (2020)). […] One such is the misoprostol, which enhanced Nurr1's transcription function. Thus, we chose PGE1 and Misoprostol as the candidate molecules to make modification.

Assay [2] has as its system 6-OHDA Parkinson's disease model. In words: 6-OHDA Parkinson's disease model, apomorphine induced rotational behavior, intranasal administration. In kind it is in vivo, C57BL/6 mice. As to conditions: apomorphine (0.5 mg/kg) induced rotation; daily intranasal 0.2 mg/ml; 6-OHDA mice. As to the method:
Mice were randomly divided into […]: Control (n=4); 6-OHDA (6-hydroxydopamine)+(n=7), 6-OHDA+PGE1 (n=8); 6-OHDA+BSC15 (the compound of the present invention) (n=8); 6-OHDA+BSC19 (the compound of the present invention) (n=7).
Week 9-10 C57BL/6 mice were intranasally administered daily with 0.2 mg/ml of compounds to be tested for 3 days before 6-OHDA injection. Stereotaxic surgery was performed by injecting 7.5 μg of 6-OHDA into the left striatum (AP: +0.5 mm, ML: −2.0 mm, VD: −3.5 mm) of the mouse. Compounds to be tested, i.e., PGE1, BSC15 and BSC19 were prepared by double emulsion solvent evaporation of 1:4 molar ratio with 2-hydroxypropyl-β-cyclodextrin. After surgical recovery, the daily intranasal administration continued with a weekly assessment of apomorphine (0.5 mg/kg) induced rotational behavior. Animal care and handling were performed according to the protocol approved by Nanyang Technological University's Institutional Animal Care and Use Committee.

Sequence of Nurr1 (P43354 whole entry, species assumed, the tested form may be a part): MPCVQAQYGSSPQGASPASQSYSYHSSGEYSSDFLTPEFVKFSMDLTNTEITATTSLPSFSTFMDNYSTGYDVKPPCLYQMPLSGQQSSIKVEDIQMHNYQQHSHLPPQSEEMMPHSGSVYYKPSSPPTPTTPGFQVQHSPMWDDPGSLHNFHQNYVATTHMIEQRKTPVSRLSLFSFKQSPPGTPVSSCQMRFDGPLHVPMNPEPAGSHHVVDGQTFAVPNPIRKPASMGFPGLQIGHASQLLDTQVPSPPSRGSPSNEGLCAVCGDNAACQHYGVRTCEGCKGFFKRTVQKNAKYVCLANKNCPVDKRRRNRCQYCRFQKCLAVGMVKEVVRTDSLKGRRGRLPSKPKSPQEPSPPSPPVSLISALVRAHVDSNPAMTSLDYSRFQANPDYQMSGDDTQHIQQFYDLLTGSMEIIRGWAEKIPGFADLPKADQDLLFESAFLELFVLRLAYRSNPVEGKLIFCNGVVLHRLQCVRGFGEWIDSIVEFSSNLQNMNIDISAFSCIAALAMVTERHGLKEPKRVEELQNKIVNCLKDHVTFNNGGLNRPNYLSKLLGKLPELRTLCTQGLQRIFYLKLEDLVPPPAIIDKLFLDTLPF
T1 sequence (Q06219 whole entry): as the sequence (P43354 whole entry, species assumed, the tested form may be a part) above, with T131S, G134S, E354D counted along it
Sequence of ligand-binding domain (LBD) of Nurr1 (P43354 360-595 limits assumed): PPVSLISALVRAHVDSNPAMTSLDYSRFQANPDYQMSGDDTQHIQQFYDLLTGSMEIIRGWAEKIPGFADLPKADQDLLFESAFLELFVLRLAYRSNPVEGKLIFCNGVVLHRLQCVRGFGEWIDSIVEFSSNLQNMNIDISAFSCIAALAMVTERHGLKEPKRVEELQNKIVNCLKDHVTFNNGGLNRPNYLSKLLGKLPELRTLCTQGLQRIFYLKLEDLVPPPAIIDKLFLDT

On to `CCCCC[C@H](O)/C=C/[C@@H]1[C@@H](C/C=C\CCCC(=O)O)[C@@H](O)C[C@H]1O.NC(CO)(CO)CO` [Compound 92, DinoprostTromethanol], for which, on mouse Nurr1 full-length, the “Fold activity (1 uM)” value is “B (1.1~2.0 (moderate))”.

As for `CCCCC[C@H](O)/C=C/[C@H]1[C@H](O)CC(=O)[C@@H]1CCCCC(=O)O` [Compound 93, 2,3-DINOR PGE1], the “Fold activity (1 uM)” value at mouse Nurr1 full-length is “C (below 1.0 (low activity))”.

With `O=C(CCC/C=C\C[C@@H]1[C@@H](CC[C@@H](O)CCc2ccccc2)[C@H](O)C[C@@H]1O)OCCCCO[N+](=O)[O-]` [Compound 95, Latanoprostene bunod], the “Fold activity (1 uM)” value on mouse Nurr1 full-length was “C (below 1.0 (low activity))”.

As for `CCCCC[C@H](O)/C=C/[C@H]1C=CC(=O)[C@@H]1CCCCCCC(=O)O` [PGA1], the “activation of Nurr1” value at Nurr1 is “activate”. In assay [1], the “direct binding to the ligand-binding domain (LBD) of Nurr1” value (from here on “direct binding”) is recorded as “directly bind” and the “binding site on Nurr1-LBD by NMR titration” value is “interact at same binding site on Nurr1-LBD”.

With `CCCCC[C@H](O)/C=C/[C@H]1C=CC(=O)[C@@H]1C/C=C\CCCC(=O)O` [PGA2], the “activation of Nurr1” value on Nurr1 is “activate”. Besides, in assay [1], the “direct binding” value is “directly bind”.

On to `CCCCC[C@H](O)/C=C/[C@H]1[C@H](O)CC(=O)[C@@H]1CCCCCCC(=O)O` [PGE1, Prostaglandin E1], for which the “activation of Nurr1” value on Nurr1 was “activate”. For the same compound, in assay [1], the “direct binding” value is listed as “directly bind” and the “binding site on Nurr1-LBD by NMR titration” value is on record as “interact at same binding site on Nurr1-LBD”. Further, the rotation number result in assay [2] is “significant reduction”.

Regarding `CCCCC[C@H](O)/C=C/[C@H]1[C@H](O)CC(=O)[C@@H]1C/C=C\CCCC(=O)O` [PGE2, Prostaglandin E2], the “activation of Nurr1” value at Nurr1 is reported as “activate”. The “direct binding” value in assay [1] was “directly bind”.

`CCCCC(C)(O)C/C=C/[C@H]1[C@H](O)CC(=O)[C@@H]1CCCCCCC(=O)OC` (stereo partly drawn) [misoprostol, Misoprostol]: at Nurr1, the “Nurr1's transcription function” value was “enhanced”.
